Source: US20180118682A1, “PHARMACEUTICAL COMPOSITION CONTAINING A TRYPTOPHAN DERIVATIVE” (Ramot at Tel-Aviv University Ltd., priority 2010, published 2018)
≈ marks a conversion by molar mass, not a printed value.

Experiments:
[1] = system: microorganisms (e.g. bacteria and fungi); experiment: microbial preservation of ophthalmic formulations according to European and US pharmacopeia standards; format: cell-based; settings: European standards (Pharmacopeia 7.0) and US-Pharmacopeia
Description: It can be particularly difficult to preserve formulations against microorganisms (e.g. bacteria and fungi), if the formulation contains a cyclodextrin derivative.
From different tests it can be seen that a sufficient microbial preservation of ophthalmic formulations is not possible with benzalkonium chloride, cetrimide and chlorhexidine according to the European standards (Pharmacopeia 7.0) and US standards (US-Pharmacopeia).

[2] = aqueous solubility of compound (A) as a function of pH (UV-spectroscopy); format: physicochemical; settings: for solubility: aqueous media, aqueous buffer, R-enantiomer used
Description: At acidic conditions, the solubility of the compound (A) is higher.
At alkaline pH-values, the solubility of the compound (A) is also better.
The solubility of the R-enantiomer of compound (A) was determined as a function of the pH-value by using UV-spectroscopy to quantify the concentration of the compound in a series of aqueous media.

[3] = octanol/water partition coefficient log P, pH-metric method (OECD draft guideline 122); format: physicochemical; settings: titrated pH 1.9 to 10.9, 1.3 to 1.9 mM, various octanol/water ratios
Description: The octanol/water partition coefficient log P of the compounds of the invention can be determined by accepted standard methods known to the person skilled in the art, such as OECD (1995), Test No. 107: Partition Coefficient (n-octanol/water): Shake Flask Method, OECD Guidelines for the Testing of Chemicals, Section 1: Physical-Chemical properties, OECD Publishing. doi: 10.1787/9789264069626-en.
The log P value may be determined according to the draft OECD guideline OECD (2000), OECD Draft guideline for the Testing of Chemicals: 122 Partition Coefficient (n-Octanol/Water): pH-Metric Method for Ionisable Substances. For Example, log P of compound (A) was investigated using OECD (2000) OECD Draft guideline for the Testing of Chemicals: 122. The sample was titrated in two triple titrations from pH 1.9 to pH 10.9 at concentrations of 1.3 to 1.9 mM in various ratios of octanol/water.

[4] = compatibility with ophthalmic excipients; format: physicochemical; settings: aqueous solutions at pH 5.5
Description: In the further series of tests, the compatibility of the compound (A) with other typical ophthalmic excipients was investigated.

[5] = system: retinal ganglion cell (RGC) apoptosis; experiment: rat glaucoma model (chronic ophthalmic hypertension), RGC apoptosis; format: in vivo, male Dark Aguti rat; settings: low doses, intravitreal; compared to vehicle; 3 and 6 weeks after OHT induction
Description: In a male Dark Aguti rat model, glaucoma is produced by injection of hypertonic saline into episcleral veins of one eye to induce increased ophthalmic pressure (chronic ophthalmic hypertension), while the opposite eye serves as a control. In treatment groups, various doses of compound (A) of the instant invention are injected intravitreally (in […] volume) at the time of glaucoma induction and in some groups the administration continues for following 7 days to see whether such extended treatment results in increased efficacy.
The extent of retinal ganglion cell (RGC) apoptosis at 3 weeks and 6 weeks after chronic ophthalmic hypertension (OHT) induction is assessed in each animal by dynamic confocal scanning laser ophthalmoscopy and fluorescent-labeled Annexin V.
Animals are sacrificed after 3 and 6 weeks and their eyes are enucleated and fixed in 4% para-formaldehyde overnight. Afterwards, retinas are separated for assessing apoptosis related changes, for example visualized with FITC Annexin V kit (BD Biosciences, Franklin Laker (USA).

[6] = equilibrium solubility in citrate buffer saline pH6 with cyclodextrins (shake flask method); format: physicochemical; settings: citrate buffer saline with cyclodextrin, pH 6, aqueous with cosolvent or surfactant or cyclodextrin, thermodynamic from solid, read-out: Solubility of compound (A)
Description: The equilibrium solubility of compound (A) was tested in a citrate buffer saline at pH6 in presence of different cyclodextrins by the shake flask method.

[7] = equilibrium solubility in water at 20 °C with varying cyclodextrin content; format: physicochemical; settings: thermodynamic from solid
Description: For testing the influence of the cyclodextrin content in ophthalmic formulations, the solubility of Compound (A) was tested.

Candida albicans = experiment: preservation of ophthalmic formulation against Candida albicans; format: cell-based
Description: (§1) For testing of the long term preservation of the ophthalmic formulations with metal-containing preservatives, the pharmaceutical compositions VI of example 4 was modified by adding thiomersal in a concentration of 0.01% by weight in the aqueous formulation.

Aspergillus niger = experiment: preservation of ophthalmic formulation against Aspergillus niger; format: cell-based
Description: as §1

Pseudomonas aeruginosa = experiment: preservation of ophthalmic formulation against Pseudomonas aeruginosa; format: cell-based
Description: as §1

Staphylococcus aureus = experiment: preservation of ophthalmic formulation against Staphylococcus aureus; format: cell-based
Description: as §1

[8] = 0.001 to 0.01% by weight in the aqueous formulation
[9] = composition VI with thiomersal 0.01% by weight, after 28 days

Which “sufficient microbial preservation of ophthalmic formulations” value (from here on “sufficient microbial preservation”) [1] does the source give for `[H]/N=C(\N/C(=N/[H])NCCCCCCNC(=N)NC(=N)Nc1ccc(Cl)cc1)Nc1ccc(Cl)cc1` [chlorhexidine] here?
The value was “not possible”.

Which solubility ([2]; pH 4.6) does the source give for `CC(C)(NC(=O)C(N)Cc1c[nH]c2ccccc12)C(=O)O` (stereo not drawn) [compound (A), 2-[2-Amino-3-(1H-indol-3-yl)-propionylamino]-2-methyl-propionic acid] here?
Its solubility is ~14 mg/mL (≈ 48.4 mM).

And the solubility ([2]; pH 6)?
Its solubility is ~10 mg/mL (≈ 34.6 mM).

And the solubility ([2]; pH 7)?
The solubility was ~10 mg/mL (≈ 34.6 mM).

What about the solubility ([2]; pH 7.2) of the same molecule?
Its solubility is ~14 mg/mL (≈ 48.4 mM).

And the “solubility (in words)” value ([2]; at acidic conditions)?
Its value is “higher”.

And the “solubility (in words)” value ([2]; at alkaline pH-values)?
Its value is “better”.

And the “solubility (in words)” value ([2]; from pH 4.5 to 7)?
The value was “particularly low”.

What about the logP [3] of the same molecule?
The logP was < -1.

And the “compatibility with further components (F) (hypromellose, carbomer, Gellan gum, preservatives)” value [4]?
The value was “no incompatibilities”.

And the RGC apoptosis [5]?
The RGC apoptosis was “strong decrease”.

What about the solubility ([6]; 100 mg/ml ACD (α-Cyclodextrin, Fluka)) of the same molecule?
Its solubility is 12.7 mg/mL (≈ 43.9 mM).

What about the solubility ([6]; 110 mg/ml HPBCD (Kleptose HPB, Roquette)) of the same molecule?
Its solubility is 27.9 mg/mL (≈ 96.4 mM).

And the solubility ([6]; 110 mg/ml HPGCD (Cavasol W8 HP Pharma, ISP))?
Its solubility is 16.2 mg/mL (≈ 56 mM).

And the solubility ([6]; 110 mg/ml MBCD (Kleptose Crysmeb, Roquette))?
The solubility was 28.7 mg/mL (≈ 99.2 mM).

What about the solubility thermodynamic ([7]; water without cyclodextrin) of the same molecule?
The solubility thermodynamic was 11.6 mg/mL (≈ 40.1 mM).

What about the solubility thermodynamic ([7]; water with cyclodextrin (HPBCD), aqueous with cosolvent or surfactant or cyclodextrin, water containing 65 mg/ml cyclodextrin (HPBCD)) of the same molecule?
The solubility thermodynamic was 20.2 mg/mL.

What about the solubility thermodynamic ([7]; water with cyclodextrin, aqueous with cosolvent or surfactant or cyclodextrin, water containing 165 mg/ml cyclodextrin) of the same molecule?
The solubility thermodynamic was 41.2 mg/mL.

With `C/C=C/C=C/C(=O)O` [sorbic acid] as the molecule, how does the “preservation against Candida albicans” value (Candida albicans; 0.3% by weight instead of thiomersal in composition VI, after 14 days) read?
The value was “insufficient preservation”.

With `C[CH2][Hg][S]c1ccccc1C(=O)[O-].[Na+]` [thiomersal] as the molecule, how does the “activity meeting the compendia requirements” value (Candida albicans) read?
Its value is “sufficient activity”.

What about the duration of preservation (Candida albicans; [8]) of the same molecule?
Its duration of preservation is ≥ 28 days.

And the reduction of organism (Candida albicans; [9])?
Its reduction of organism is ≥ 5 log.

What about the “activity meeting the compendia requirements” value (Aspergillus niger) of the same molecule?
Its value is “sufficient activity”.

What about the duration of preservation (Aspergillus niger; [8]) of the same molecule?
Its duration of preservation is ≥ 28 days.

And the reduction of organism (Aspergillus niger; [9])?
Its reduction of organism is ≥ 5 log.

And the “activity meeting the compendia requirements” value (Pseudomonas aeruginosa)?
The value was “sufficient activity”.

And the duration of preservation (Pseudomonas aeruginosa; [8])?
The duration of preservation was ≥ 28 days.

And the reduction of organism (Pseudomonas aeruginosa; [9])?
Its reduction of organism is ≥ 5 log.

And the “activity meeting the compendia requirements” value (Staphylococcus aureus)?
Its value is “sufficient activity”.

What about the duration of preservation (Staphylococcus aureus; [8]) of the same molecule?
Its duration of preservation is ≥ 28 days.

And the reduction of organism (Staphylococcus aureus; [9])?
The reduction of organism was ≥ 5 log.

With benzalkonium chloride as the molecule, how does the “sufficient microbial preservation” value [1] read?
Its value is “not possible”.

For cetrimide, which “sufficient microbial preservation” value [1] is on record?
The value was “not possible”.
